# Measured values taken from patent publication EP0731697B1, “SSI TYRPHOSTINS AND PHARMACEUTICAL COMPOSITIONS” (priority 1993, dated 1995).
# Like-named read-outs stand apart in the source and are kept apart here.
# Legend:
# [1] = test system: Murine fibroblastic cells (A9)
# Protocol: Tyrphostins at different concentration were added 2 hr prior to TNF. After 24 hrs cells viability was determined by vital staining using neutral red.
# Recombinant human TNFα is added to a mouse fibroblastic cell line (A9), cultured in the presence of cyclohexamine and cell viability is monitored after 20 hours. […] The percentage of live cells was measured from 2 hours prior to administration until 4 hours after administration for a control and for TNF at concentrations of 0.2 ng/ml, 0.05 ng/ml, and 1.0 ng/ml.
# granulocytes = test: LPS-induced granulocyte accumulation in lungs and blood leukocyte changes; type: in vivo, Mouse
# Description: As shown, tyrphostins exert a dramatic protective effect against LPS-induced lethal toxicity. Of the effects studied, only LPS-induced accumulation of granulocytes in the lungs and alteration in blood lymphocyte and granulocytes were not affected by SSI 3. […] The indication is therefore that tyrphostins are effective in preventing septic shock following Gram-negative sepsis, experimentally or clinically.
# Mouse blood leukocyte count and differential analysis were done using Cell-Dyn 1600, Hematology Analyzer (Sequoia Turner Corporation, U.S.A).
# mice [2] = test system: mice
# TNF-α = test: LPS induced increase in serum TNF-α levels in mice; type: in vivo; conditions: for serum TNF-α levels: 400 ug/mouse i.p. 2 hrs prior to LPS, bled after 2 hours
# Description: TNF-α was implicated to mediate many of the toxic effect of LPS. For example, the effect of SSI 3 on serum TNF-α levels in mice which had been treated with LPS was investigated. LPS induced a rapid increase in serum TNF-α levels. […] […] The bioassay gave somewhat higher levels compared to the ELISA. This finding may indicate that the serum from LPS-treated mice contained in addition to TNF-α, other cytotoxic factors.
# The amount of TNF-α was quantitated by assessing the extent of killing of the TNF-α sensitive cell line (A9) essentially as described by Ruff and Gilford, G. E. J. Immunol. 125, 1671-1677, (1980). Briefly, mouse A9 fibroblasts were plated in 96-well flat-bottom micro-titer plates at 30,000 cells /0.1 ml to establish a dense monolayer. After incubation for 24 hr at 37 C in a humidified 5% CO2 atmosphere, cycloheximide was added to a final concentration of 50 ug/ml and 100 ul of serially diluted test samples were added to the wells. After incubation for additional 18 hr the supernatants were carefully aspirated, the monolayer were washed twice with PBS and 200 ul of neutral red solution (0.02%) was added. After incubation for 2 hr, cells were washed and the dye that had been absorbed by the live cells was extracted using 200 ul of 50% ethanol. The concentration of the dye was determined by an ELISA autoreader using a 550 nm filter. Murine TNF-α ELISA kit from ENDOGEN Inc., was used for quancitation of murine TNF-α.
# PDGFR = conditions: even at concentrations above 100 uM; cited from earlier work
# mice [3] = test: TNF-α induced lethal toxicity in actinomycin D treated mice; type: in vivo; conditions: actinimycin D:TNF 20 to 2.5 and 15 to 1.0, SSI 3, 400 mg/mouse i.p. 2 hr prior to TNF, 5 mice
# Protocol: The effect of SSI 3 on lethal toxicity in mice induced by TNF-α was investigated. Mice are relatively resistant to TNF-α, when applied as a single agent. Pretreatment of mice with actinomycin D renders them extremely sensitive to TNF. (Wallach et al., 140 J. Immun. 2994, 1988). SSI 3 delayed TNF-α induced lethal toxicity in actinomycin D treated mice by approximately 15 hours at two ratios of actinimycin D:TNF (20 to 2.5 and 15 to 1.0). Mice were injected, i.p., with TNF at 0 time. SSI 3, […]/mouse was administered (i.p.) 2 hr, and actinomycin D (ACT.D) was given (i.p.) 30 min prior to TNF injection. Each experimental group contained 5 mice. Injection of actinomycin D alone causes death in 2 out of 5 animals after 120 hours and 3 out of 5 after 144 hours.
# mice [4] = test: LPS toxicity and mortality in mice sensitized with galactosamine; type: in vivo, mice (strain (CD1))
# Protocol: In this model for organ failure, mice (strain (CD1)) are injected (i.p.) simultaneously with galactosamine (18 mg/mouse) and LPS (50 ng/mouse). The LD50 of LPS used in this model is approximately 30,000 lower than the LD50 of LPS used alone. The main toxic manifestation in this model is liver damage and mice develop severe hypoglycemia and die within 7-8 hours.
# Serial blood glucose determinations were done in individual animals (2 mice per group). […] Administration of the tyrphostins SSI 3, 400 ug/mouse or SSI 17, 200 ug/mouse 2 hours prior to galactosamine and LPS, prevents hypoglycemia (blood glucose level were approximately […] at 0 and the same after 24 hours) and mortality for over 5 days.
# [5] = test system: murine peritoneal macrophages; test: NO2- production by periodate-activated murine peritoneal macrophages; type: cell-based
# Protocol: Nitrite (NO2-) levels were determined in supernatants at the time indicated, as described herein. (Table 5) Values are expressed as means of triplicate cultures. […] Two additional experiments yielded similar results.
# NO2- the product of NO oxidation is used to determine NO produced. Nitrite concentration in supernatants of macrophages was measured by a microplate assay method. 100 ul aliquots of supernatants were incubated with an equal volume of Griess reagent (1% sulfanilamide/O.1% naphthylethylene diamine dihydrochloride/2.5% H3PO4) at room temperature for 10 min. The absorbance at 550nm was determined in a microplate reader. Sodium nitrite was used as a standard.
# Mice were injected i.p. with 1 ml sodium periodate (5mM). Three to 4 days later, macrophages were washed from the peritoneal cavity with PBS. After centrifugation at 170g for 10 min at […], the cell pellet was resuspended in RPMI 1640 containing 10% heat-inactivated new born calf serum. Adherent macrophage monolayers were obtained by plating the cells in 96-well plastic trays at 4x10^5 cells/well for 2 hr at 37°C in 5% CO2/air. Nonadherent cells were removed by suction and complete medium was added. […]
# EGF receptor = EGF receptor (Homo sapiens, UniProt P00533); conditions: even at concentrations above 100 uM; cited from earlier work
# Chain of EGF receptor (P00533 25-1210): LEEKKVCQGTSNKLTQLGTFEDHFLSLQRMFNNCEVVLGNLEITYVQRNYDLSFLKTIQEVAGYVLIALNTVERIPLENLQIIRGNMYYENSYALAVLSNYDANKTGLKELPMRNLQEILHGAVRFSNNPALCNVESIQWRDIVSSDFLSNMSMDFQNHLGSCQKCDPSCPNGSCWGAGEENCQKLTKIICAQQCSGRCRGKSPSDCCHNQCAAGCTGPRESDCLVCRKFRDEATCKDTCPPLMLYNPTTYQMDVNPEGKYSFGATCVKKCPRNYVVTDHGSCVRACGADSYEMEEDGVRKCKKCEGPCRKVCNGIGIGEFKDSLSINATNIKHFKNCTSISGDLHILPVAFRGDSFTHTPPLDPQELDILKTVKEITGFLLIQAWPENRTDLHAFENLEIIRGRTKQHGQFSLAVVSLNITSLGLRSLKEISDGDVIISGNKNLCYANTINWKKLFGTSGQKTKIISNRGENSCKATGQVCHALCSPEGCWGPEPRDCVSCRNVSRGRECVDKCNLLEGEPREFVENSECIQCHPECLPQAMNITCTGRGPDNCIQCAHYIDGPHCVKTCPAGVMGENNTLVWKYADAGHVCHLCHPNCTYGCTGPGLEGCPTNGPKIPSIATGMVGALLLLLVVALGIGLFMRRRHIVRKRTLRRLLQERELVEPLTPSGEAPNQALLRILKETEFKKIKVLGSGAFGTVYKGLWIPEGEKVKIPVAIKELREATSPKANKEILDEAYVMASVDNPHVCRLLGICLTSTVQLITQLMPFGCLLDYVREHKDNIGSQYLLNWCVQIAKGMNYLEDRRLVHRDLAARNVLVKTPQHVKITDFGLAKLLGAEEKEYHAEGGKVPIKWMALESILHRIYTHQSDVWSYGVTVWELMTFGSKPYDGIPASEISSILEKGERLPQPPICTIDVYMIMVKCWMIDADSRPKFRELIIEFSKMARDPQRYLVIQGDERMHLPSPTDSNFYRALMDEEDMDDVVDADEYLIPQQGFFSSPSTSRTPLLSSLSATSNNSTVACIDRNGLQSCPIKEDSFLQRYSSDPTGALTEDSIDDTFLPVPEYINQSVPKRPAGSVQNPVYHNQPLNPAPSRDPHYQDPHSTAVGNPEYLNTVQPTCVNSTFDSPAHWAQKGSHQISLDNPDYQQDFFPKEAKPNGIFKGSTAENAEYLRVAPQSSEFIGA
smiles,measurement,setting,value
N#CC(C#N)=Cc1ccc([N+](=O)[O-])c(O)c1 [SSI 3],blocking TNF-α induced cytotoxicity in vitro,[1],active
same,"TNF-α induced cytotoxicity, in vitro","[1]; A9 cells, 24 hours with TNF, cyclohexamide 50 ug/ml, tyrphostins added 2 hr prior to TNF, neutral red",reduced
same,TNF toxicity (percentage of live cells),"[1]; SSI 3 50 uM, SSI 16 2 uM, SSI 17 2 and 10 uM, A9 cells with cyclohexamine, viability after 20 hours, TNF 0.2, 0.05 and 1.0 ng/ml",prevent TNF toxicity to different degrees
same,alteration in blood lymphocyte and granulocytes,granulocytes; LPS-induced,not affected
same,LPS-induced accumulation of granulocytes in the lungs,"granulocytes; mouse, in vivo",not affected
same,mice survived,"mice [2]; 200 ug/mouse, LPS 1.5 mg/mouse",3 out of 5 mice
same,mice (still alive),mice [2]; 12 h,20 mice
same,mice (still alive),mice [2]; 36 h,18 mice
same,mice (still alive),mice [2]; 60 h,18 mice
same,serum TNF-α levels,"TNF-α; higher of two printed values, presumably bioassay, LPS alone 14",4 ng/mL
same,serum TNF-α levels,"TNF-α; lower of two printed values, presumably ELISA, LPS alone 7",3 ng/mL
same,Serum TNF-α,"TNF-α; LPS 200 µg/mouse, AG 300 µg/mouse 2 hrs prior to LPS, 1hr, mean (two single values)","2.8 (1.2, 4.4) ng/ml"
same,Serum TNF-α,"TNF-α; LPS 200 µg/mouse, AG 300 µg/mouse 2 hrs prior to LPS, 2hr, mean (two single values)","3.6 (2.7, 4.5) ng/ml"
same,Serum TNF-α,"TNF-α; no LPS (-), AG 300 µg/mouse, 1hr",16.3 ng/mL
same,effect on PDGFR,PDGFR,no effect
same,delay of TNF-α induced lethal toxicity,mice [3],approximately 15 hours
same,blood glucose level,"mice [4]; after 24 hours, SSI 3 400 ug/mouse or SSI 17 200 ug/mouse 2 hours prior to galactosamine (18 mg/mouse) and LPS (50 ng/mouse), 2 mice per group",approximately 100 % mg
same,hypoglycemia and mortality,"mice [4]; mortality for over 5 days, SSI 3 400 ug/mouse or SSI 17 200 ug/mouse 2 hours prior to galactosamine and LPS",prevents
same,LPS induced NO production,"[5]; 50 um, added 2 hours prior to LPS, 24 hours",markedly inhibit
same,NO production,"[5]; 50 um, from an initial level of 70 uM (no LPS), 24 hours",~30 µM
same,NO production,"[5]; 50 um, from an initial level of 40 (10 ug/ml of LPS), 24 hours",approximately 20 uM
same,NO2- production in unstimulated and LPS-stimulated periodate-activated murine macrophages,[5]; LPS (10 mg/ml),effectively inhibited
same,NO2- Production by Macrophages,"[5]; SSI 20 uM, LPS 10 ug, 1 DAY","30,2 µg"
same,NO2- Production by Macrophages,"[5]; SSI 20 uM, LPS 10 ug, 2 DAY",91 µg
same,NO2- Production by Macrophages,"[5]; SSI 20 uM, LPS 10 ug, 3 DAY","90,1 µg"
same,NO2- Production by Macrophages,"[5]; SSI 20 uM, no LPS, 1 DAY","11,8 µg"
same,NO2- Production by Macrophages,"[5]; SSI 20 uM, no LPS, 2 DAY","17,5 µg"
same,NO2- Production by Macrophages,"[5]; SSI 20 uM, no LPS, 3 DAY","7,5 µg"
same,NO2- Production by Macrophages,"[5]; SSI 50uM, LPS 10 ug, 1 DAY","6,1 µg"
same,NO2- Production by Macrophages,"[5]; SSI 50uM, LPS 10 ug, 2 DAY","31,4 µg"
same,NO2- Production by Macrophages,"[5]; SSI 50uM, LPS 10 ug, 3 DAY","19,2 µg"
same,NO2- Production by Macrophages,"[5]; SSI 50 uM, no LPS, 1 DAY",5 µg
same,NO2- Production by Macrophages,"[5]; SSI 50 uM, no LPS, 2 DAY","8,6 µg"
same,NO2- Production by Macrophages,"[5]; SSI 50 uM, no LPS, 3 DAY","4,8 µg"
same,effect on EGF receptor,EGF receptor,no effect
